In patent US11787781B2, “Inhibiting ataxia telangiectasia and RAD3-related protein (ATR)” (Celator Pharmaceuticals, Inc., priority 2016, dated 2023):
Read-outs that look alike come from different tables or passages of the source.

Key:
ATM(h) = ATM(h) (Homo sapiens (Human), UniProt Q13315); experiment: ATM activity, […] KINASEPROFILER; format: biochemical; details: estimated IC50
Excerpt: Estimated IC50 values are as follows (obtained using […] KINASEPROFILER): […]

[1] = system: panel of lung cancer cell lines; experiment: […]-GLO cell viability, free drug monotherapy and combination screening; format: cell-based
Protocol: In vitro efficacy study was done using […]-GLO Luminescent Cell Viability Assay (Promega) with Corning Cat #3707 384 well White Clear bottom plates. Cells were plated (1000 cells/well) in 384 well format and allowed to incubate at 37° C. for 24 hours. Monotherapy drugs were added at the 24 hr time point and then allowed to incubate at 37° C. for 24 hours. At the 48 hr time point the drugs in media were removed, washed with PBS, and fresh media was added. Cells were then allowed to incubate at 37° C. for 72 hours. […]
At the 120 hr time point media was removed and […]-GLO (CTG) reagent was added (1:1 ratio with PBS). Plates were read using a luminometer (Envision Multilabel reader). […]
Data was analyzed using an in-house algorithm developed using Matlab (Mathworks, Natick Mass.). […]
Data quality control was performed to ensure that the concentration range is optimal according to these rules: (1) if the lowest concentration kills more than 70% of the cells the concentration range is deemed too potent (2) if the highest concentration kills less than 30% of the cells, the concentration range is deemed low or the cell line is too resistant. Additionally, goodness of the fit was evaluated using R^2 and R^2<0.9 is flagged as a bad fit.

MLK3/MAP3K11 = MLK3/MAP3K11 (Homo sapiens (Human), UniProt Q16584); experiment: Broad kinase panel screening; format: biochemical
Excerpt: (§1) Example 16: Broad Kinase Panel Screening (359)
(§2) Major hits out of 359 were: ALK, ARK, c-MER, CLK1, DYRK, GSK3a, GSK3b, FLT2, FLT3, MLK1, SIK2, TNIK, and YSK4.

ARK5/NUAK1 = ARK5/NUAK1 (Homo sapiens (Human), UniProt O60285); experiment: Broad kinase panel screening; format: biochemical
Excerpt: as §1, §2

PKD2/PRKD2 = PKD2/PRKD2 (Homo sapiens (Human), UniProt Q9BZL6); experiment: Broad kinase panel screening; format: biochemical
Excerpt: as §1, §2

YSK4/MAP3K19 = YSK4/MAP3K19 (Homo sapiens (Human), UniProt Q56UN5); experiment: Broad kinase panel screening; format: biochemical
Excerpt: as §1, §2

MLK2/MAP3K10 = MLK2/MAP3K10 (Homo sapiens (Human), UniProt Q02779); experiment: Broad kinase panel screening; format: biochemical
Excerpt: as §1, §2

PKCmu/PRKD1 = PKCmu/PRKD1 (Homo sapiens (Human), UniProt Q15139); experiment: Broad kinase panel screening; format: biochemical
Excerpt: as §1, §2

ALK1/ACVRL1 = ALK1/ACVRL1 (Homo sapiens (Human), UniProt P37023); experiment: Broad kinase panel screening; format: biochemical
Excerpt: as §1, §2

DDR1 = DDR1 (Homo sapiens (Human), UniProt Q08345); experiment: Broad kinase panel screening; format: biochemical
Excerpt: as §1, §2

FLT4/VEGFR3 = FLT4/VEGFR3 (Homo sapiens (Human), UniProt P35916); experiment: Broad kinase panel screening; format: biochemical
Excerpt: as §1, §2

CLK1 = CLK1 (Homo sapiens (Human), UniProt P49759); experiment: Broad kinase panel screening; format: biochemical
Excerpt: as §1, §2

PIM1 = PIM1 (Homo sapiens (Human), UniProt P11309); experiment: Broad kinase panel screening; format: biochemical
Excerpt: as §1, §2

ALK2/ACVR1 = ALK2/ACVR1 (Homo sapiens (Human), UniProt Q04771); experiment: Broad kinase panel screening; format: biochemical
Excerpt: as §1, §2

MLK1/MAP3K9 = MLK1/MAP3K9 (Homo sapiens (Human), UniProt P80192); experiment: Broad kinase panel screening; format: biochemical
Excerpt: as §1, §2

CLK4 = CLK4 (Homo sapiens (Human), UniProt Q9HAZ1); experiment: Broad kinase panel screening; format: biochemical
Excerpt: as §1, §2

TNIK = TNIK (Homo sapiens (Human), UniProt Q9UKE5); experiment: Broad kinase panel screening; format: biochemical
Excerpt: as §1, §2

SIK2 = SIK2 (Homo sapiens (Human), UniProt Q9H0K1); experiment: Broad kinase panel screening; format: biochemical
Excerpt: as §1, §2

RET = RET (Homo sapiens (Human), UniProt P07949); experiment: Broad kinase panel screening; format: biochemical
Excerpt: as §1, §2

GSK3a = GSK3a (Homo sapiens (Human), UniProt P49840); experiment: Broad kinase panel screening; format: biochemical
Excerpt: as §1, §2

GSK3b = GSK3b (Homo sapiens (Human), UniProt P49841); experiment: Broad kinase panel screening; format: biochemical
Excerpt: as §1, §2

DYRK2 = DYRK2 (Homo sapiens (Human), UniProt Q92630); experiment: Broad kinase panel screening; format: biochemical
Excerpt: as §1, §2

GSK3b, sequence (P49841 whole entry, species assumed): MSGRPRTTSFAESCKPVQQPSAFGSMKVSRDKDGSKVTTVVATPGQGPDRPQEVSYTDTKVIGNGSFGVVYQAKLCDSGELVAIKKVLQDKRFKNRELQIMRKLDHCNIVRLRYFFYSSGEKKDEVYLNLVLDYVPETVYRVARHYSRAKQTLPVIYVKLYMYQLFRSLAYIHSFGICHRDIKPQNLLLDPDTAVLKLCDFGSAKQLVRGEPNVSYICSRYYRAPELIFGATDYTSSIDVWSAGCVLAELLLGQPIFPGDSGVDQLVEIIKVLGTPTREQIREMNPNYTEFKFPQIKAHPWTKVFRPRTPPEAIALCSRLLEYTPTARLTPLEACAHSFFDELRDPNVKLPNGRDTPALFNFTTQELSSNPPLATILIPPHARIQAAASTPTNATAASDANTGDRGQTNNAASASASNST
GSK3a, sequence (P49840 whole entry, species assumed): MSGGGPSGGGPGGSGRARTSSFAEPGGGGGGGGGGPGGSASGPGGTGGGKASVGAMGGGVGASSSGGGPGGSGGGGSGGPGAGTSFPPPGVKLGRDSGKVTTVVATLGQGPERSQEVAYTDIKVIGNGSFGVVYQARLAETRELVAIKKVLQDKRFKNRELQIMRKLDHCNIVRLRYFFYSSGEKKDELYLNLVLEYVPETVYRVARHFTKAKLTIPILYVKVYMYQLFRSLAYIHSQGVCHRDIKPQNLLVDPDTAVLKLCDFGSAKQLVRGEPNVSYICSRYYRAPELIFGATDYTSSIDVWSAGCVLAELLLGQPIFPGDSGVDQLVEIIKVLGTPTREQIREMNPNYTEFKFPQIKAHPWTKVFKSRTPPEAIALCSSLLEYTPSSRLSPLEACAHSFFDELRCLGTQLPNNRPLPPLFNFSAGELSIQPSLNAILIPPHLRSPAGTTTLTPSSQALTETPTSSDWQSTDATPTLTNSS
PIM1, sequence (P11309 whole entry, species assumed): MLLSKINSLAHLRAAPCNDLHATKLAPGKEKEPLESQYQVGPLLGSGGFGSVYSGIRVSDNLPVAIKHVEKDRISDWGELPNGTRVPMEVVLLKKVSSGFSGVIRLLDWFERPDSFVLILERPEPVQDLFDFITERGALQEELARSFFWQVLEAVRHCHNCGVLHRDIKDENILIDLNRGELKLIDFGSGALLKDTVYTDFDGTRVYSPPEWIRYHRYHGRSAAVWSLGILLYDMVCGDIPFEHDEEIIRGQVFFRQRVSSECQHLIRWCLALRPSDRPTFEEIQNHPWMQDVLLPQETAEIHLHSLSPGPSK
MLK3/MAP3K11, sequence (Q16584 whole entry): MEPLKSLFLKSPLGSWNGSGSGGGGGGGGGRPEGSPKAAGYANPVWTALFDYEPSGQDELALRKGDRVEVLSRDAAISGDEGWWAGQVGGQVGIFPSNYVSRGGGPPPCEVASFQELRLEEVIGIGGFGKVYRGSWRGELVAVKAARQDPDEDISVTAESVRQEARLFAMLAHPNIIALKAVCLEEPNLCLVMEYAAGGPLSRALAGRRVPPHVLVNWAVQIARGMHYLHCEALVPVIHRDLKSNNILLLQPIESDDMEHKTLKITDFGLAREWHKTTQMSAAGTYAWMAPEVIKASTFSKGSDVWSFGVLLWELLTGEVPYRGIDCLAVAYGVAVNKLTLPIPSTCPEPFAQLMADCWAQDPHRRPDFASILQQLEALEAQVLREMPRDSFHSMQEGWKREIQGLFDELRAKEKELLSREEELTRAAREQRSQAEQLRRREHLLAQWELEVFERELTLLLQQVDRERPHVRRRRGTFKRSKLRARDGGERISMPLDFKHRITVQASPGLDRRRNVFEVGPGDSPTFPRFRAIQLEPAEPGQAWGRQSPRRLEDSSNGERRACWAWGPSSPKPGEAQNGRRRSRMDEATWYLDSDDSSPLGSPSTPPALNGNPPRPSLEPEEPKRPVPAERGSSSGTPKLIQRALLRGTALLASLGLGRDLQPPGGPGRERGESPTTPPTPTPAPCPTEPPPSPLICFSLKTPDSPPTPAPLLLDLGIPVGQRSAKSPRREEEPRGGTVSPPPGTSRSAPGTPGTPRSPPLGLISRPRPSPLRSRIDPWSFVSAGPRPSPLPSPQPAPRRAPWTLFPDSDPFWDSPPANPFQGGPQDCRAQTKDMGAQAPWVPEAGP
SIK2, sequence (Q9H0K1 whole entry, species assumed): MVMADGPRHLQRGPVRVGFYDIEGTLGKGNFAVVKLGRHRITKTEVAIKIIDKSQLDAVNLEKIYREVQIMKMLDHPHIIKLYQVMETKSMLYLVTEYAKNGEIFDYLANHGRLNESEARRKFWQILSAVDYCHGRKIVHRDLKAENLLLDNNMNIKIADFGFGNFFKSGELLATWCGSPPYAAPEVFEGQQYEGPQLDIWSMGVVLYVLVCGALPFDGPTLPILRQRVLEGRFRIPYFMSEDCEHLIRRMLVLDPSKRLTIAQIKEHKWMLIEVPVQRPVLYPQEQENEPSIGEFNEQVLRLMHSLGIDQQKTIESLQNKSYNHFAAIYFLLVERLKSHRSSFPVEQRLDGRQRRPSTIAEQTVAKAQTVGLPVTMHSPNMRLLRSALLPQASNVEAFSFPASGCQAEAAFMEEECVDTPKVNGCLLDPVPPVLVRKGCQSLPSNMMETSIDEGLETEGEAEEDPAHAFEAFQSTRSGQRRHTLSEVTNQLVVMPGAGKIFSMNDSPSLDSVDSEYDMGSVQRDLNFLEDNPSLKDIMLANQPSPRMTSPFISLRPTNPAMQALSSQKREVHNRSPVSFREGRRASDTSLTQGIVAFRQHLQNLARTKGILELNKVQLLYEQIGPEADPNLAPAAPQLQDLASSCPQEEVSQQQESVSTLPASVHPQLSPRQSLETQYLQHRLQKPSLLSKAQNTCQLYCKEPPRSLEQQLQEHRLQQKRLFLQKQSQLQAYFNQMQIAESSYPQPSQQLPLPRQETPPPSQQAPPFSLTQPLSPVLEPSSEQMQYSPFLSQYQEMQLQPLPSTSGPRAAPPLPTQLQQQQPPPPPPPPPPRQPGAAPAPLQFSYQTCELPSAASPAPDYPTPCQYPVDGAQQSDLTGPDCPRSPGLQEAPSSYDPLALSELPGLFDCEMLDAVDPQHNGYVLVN
PKD2/PRKD2, sequence (Q9BZL6 whole entry): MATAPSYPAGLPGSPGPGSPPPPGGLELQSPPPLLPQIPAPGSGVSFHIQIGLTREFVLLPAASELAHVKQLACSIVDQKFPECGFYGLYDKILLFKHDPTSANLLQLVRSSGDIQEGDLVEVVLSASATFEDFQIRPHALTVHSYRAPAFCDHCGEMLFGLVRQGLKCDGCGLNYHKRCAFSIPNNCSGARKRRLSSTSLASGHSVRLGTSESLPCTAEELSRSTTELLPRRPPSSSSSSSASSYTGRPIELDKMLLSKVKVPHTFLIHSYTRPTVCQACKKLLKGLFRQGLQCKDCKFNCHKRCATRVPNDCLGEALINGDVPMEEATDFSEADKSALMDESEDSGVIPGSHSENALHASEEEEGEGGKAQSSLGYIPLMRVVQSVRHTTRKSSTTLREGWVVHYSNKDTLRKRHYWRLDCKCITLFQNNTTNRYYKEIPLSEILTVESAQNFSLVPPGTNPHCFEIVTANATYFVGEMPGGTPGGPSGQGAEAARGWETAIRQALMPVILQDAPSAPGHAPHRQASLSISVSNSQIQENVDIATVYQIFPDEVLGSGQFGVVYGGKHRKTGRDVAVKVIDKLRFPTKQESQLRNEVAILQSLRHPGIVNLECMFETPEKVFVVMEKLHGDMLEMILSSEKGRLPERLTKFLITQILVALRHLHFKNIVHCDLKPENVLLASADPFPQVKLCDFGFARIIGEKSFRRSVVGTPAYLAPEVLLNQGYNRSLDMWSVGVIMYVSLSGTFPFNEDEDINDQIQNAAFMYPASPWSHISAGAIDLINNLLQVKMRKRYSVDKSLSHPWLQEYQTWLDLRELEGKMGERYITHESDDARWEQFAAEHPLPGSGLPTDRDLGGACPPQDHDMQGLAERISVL
MLK1/MAP3K9, sequence (P80192 whole entry): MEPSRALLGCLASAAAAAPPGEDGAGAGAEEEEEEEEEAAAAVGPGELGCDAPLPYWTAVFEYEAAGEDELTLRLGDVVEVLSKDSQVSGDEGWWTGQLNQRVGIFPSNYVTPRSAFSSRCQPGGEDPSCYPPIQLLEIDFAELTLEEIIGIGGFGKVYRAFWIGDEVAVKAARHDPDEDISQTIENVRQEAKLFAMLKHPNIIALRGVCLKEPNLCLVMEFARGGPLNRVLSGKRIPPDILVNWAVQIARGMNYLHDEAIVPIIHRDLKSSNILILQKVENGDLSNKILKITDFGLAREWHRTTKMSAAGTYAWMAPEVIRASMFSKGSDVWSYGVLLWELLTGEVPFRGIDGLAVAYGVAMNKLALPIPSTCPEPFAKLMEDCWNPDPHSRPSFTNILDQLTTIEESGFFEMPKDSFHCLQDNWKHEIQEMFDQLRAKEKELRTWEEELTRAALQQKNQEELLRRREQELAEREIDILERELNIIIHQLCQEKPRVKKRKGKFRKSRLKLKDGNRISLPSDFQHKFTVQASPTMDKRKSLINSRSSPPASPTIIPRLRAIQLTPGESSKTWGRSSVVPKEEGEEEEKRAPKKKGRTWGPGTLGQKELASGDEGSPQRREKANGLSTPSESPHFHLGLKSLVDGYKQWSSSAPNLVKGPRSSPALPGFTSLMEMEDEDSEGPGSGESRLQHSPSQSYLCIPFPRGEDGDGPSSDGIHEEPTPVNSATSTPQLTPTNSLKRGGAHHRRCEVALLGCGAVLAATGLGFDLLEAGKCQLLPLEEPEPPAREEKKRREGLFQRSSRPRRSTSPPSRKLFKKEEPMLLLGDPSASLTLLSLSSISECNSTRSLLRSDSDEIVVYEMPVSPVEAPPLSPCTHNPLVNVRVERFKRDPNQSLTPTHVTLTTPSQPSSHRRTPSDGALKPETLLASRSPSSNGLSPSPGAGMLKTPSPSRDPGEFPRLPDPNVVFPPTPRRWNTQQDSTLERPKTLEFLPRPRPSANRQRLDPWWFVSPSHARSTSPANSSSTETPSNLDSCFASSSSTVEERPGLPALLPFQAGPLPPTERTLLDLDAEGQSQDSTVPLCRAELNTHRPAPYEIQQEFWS

CN(C)CCC1CCN(CCS(=O)(=O)c2ccc(-c3cnc(N)c(C(=O)Nc4ccccc4)n3)cc2)CC1 [Compound 5, 3-amino-6-(4-((2-(4-(2-(dimethylamino)ethyl)piperidin-1-yl)ethyl)sulfonyl)phenyl)-N-phenylpyrazine-2-carboxamide]
IC50 (ATM(h)): > 10000 nM | potency (IC50) of chemotherapeutic agent combined with ATR inhibitor, vs Compound 6 ([1]; 1 μg/ml ATR inhibitor with Carboplatin, Gemcitabine or Compound B): more potent | monotherapy cell kill IC50, folds lower than Compound 6 ([1]; monotherapy, 24 h exposure): ~3 folds | IC50 (MLK3/MAP3K11; read-out: IC50 nM): 5.9 nM | IC50 (MLK3/MAP3K11; read-out: IC50): 5.9 nM | IC50 (ARK5/NUAK1): 16.8 nM | IC50 (PKD2/PRKD2): 157 nM | IC50 (YSK4/MAP3K19): 29.2 nM | IC50 (MLK2/MAP3K10): 9.58 nM | IC50 (PKCmu/PRKD1): 134 nM | IC50 (ALK1/ACVRL1): 35.7 nM | IC50 (DDR1): 191 nM | IC50 (FLT4/VEGFR3): 63.4 nM | IC50 (CLK1): 134 nM | IC50 (PIM1; read-out: IC50 nM): 72.6 nM | IC50 (PIM1; read-out: IC50): 72.6 nM | IC50 (ALK2/ACVR1): 16.6 nM | IC50 (MLK1/MAP3K9): 11.3 nM | IC50 (CLK4): 88.6 nM | IC50 (TNIK): 110 nM | IC50 (SIK2): 149 nM | IC50 (RET): 77.4 nM | IC50 (GSK3a; read-out: IC50 nM): 5.73 nM | IC50 (GSK3a; read-out: IC50): 5.73 nM | IC50 (GSK3b; read-out: IC50 nM): 63 nM | IC50 (GSK3b; read-out: IC50): 63 nM | IC50 (DYRK2): 71.8 nM
